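Interpolation was linear, between the two tested concentrations surrounding the appropriate level; five concentrations were tested over 48 hours in 96-well plates. GI50 = concentration required for 50% inhibition of growth. TGI: total growth inhibition.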
Legend:
Experiment in all cases: NCI-60 cell line screen, 48 h
[1] = system: A549 NSCLC
[2] = system: HS 578T breast
[3] = system: MALME-3M melanoma
[4] = system: SF-268 CNS
[5] = system: SK-MEL-5 melanoma
[6] = system: OVCAR-5 ovarian
[7] = system: OVCAR-8 ovarian
[8] = system: SK-OV-3 ovarian
[9] = system: A498 renal
[10] = system: DU-145 prostate
[11] = system: 786-0 renal
[12] = system: CAKI-1 renal
[13] = system: NCI-H23 lung
[14] = system: PC-3 prostate
[15] = system: HOP-92 NSCLC
[16] = system: RXF 393 renal
[17] = system: M14 melanoma
[18] = system: MDA-MB-231 breast
[19] = system: SNB-75 CNS
[20] = system: SK-MEL-2 melanoma
[21] = system: HCC-2998 colon
[22] = system: ACHN renal
[23] = system: HCT-116 colon
[24] = system: LOX IMVI melanoma
[25] = system: HCT-15 colon
[26] = system: MOLT-4 leukemia
[27] = system: SF-295 CNS
[28] = system: SK-MEL-28 melanoma
[29] = system: SNB-19 CNS
[30] = system: IGROV1 ovarian
[31] = system: HT29 colon
[32] = system: KM12 colon
[33] = system: MCF7 breast
[34] = system: NCI-H522 lung
[35] = system: NCI/ADR-RES ovarian
[36] = system: U251 CNS
[37] = system: HOP-62 NSCLC
[38] = system: NCI-H460 lung
[39] = system: K-562 leukemia
[40] = system: SN12C renal
[41] = system: MDA-MB-435
[42] = system: SF-539 CNS
[43] = system: UACC-62 melanoma
[44] = system: UACC-257 melanoma
[45] = system: CCRF-CEM leukemia
[46] = system: UO-31 renal
[47] = system: BT-549 breast
[48] = system: OVCAR-4 ovarian
[49] = system: HL-60(TB) leukemia
[50] = system: TK-10 renal
[51] = system: SR leukemia
[52] = system: RPMI-8226 leukemia
[53] = system: SW-620 colon
[54] = system: T-47D breast
[55] = system: OVCAR-3 ovarian
[56] = system: NCI-H226 lung
[57] = system: COLO 205 colon

## CN([N-]C(=O)CC(=O)[N-]N(C)C(=S)c1ccccc1)C(=S)c1ccccc1.[Cu+2]
[1]
  GI50: 0.0223 µM
  TGI: 0.119 µM
[2]
  GI50: 0.0851 µM
  TGI: 0.619 µM
[3]
  GI50: 0.0194 µM
  TGI: 0.0585 µM
[4]
  GI50: 0.037 µM
  TGI: 0.176 µM
[5]
  GI50: 0.0599 µM
  TGI: 0.192 µM
[6]
  GI50: 0.0445 µM
  TGI: 0.175 µM
[7]
  GI50: 0.0598 µM
  TGI: 0.232 µM
[8]
  GI50: 0.0263 µM
  TGI: 0.114 µM
[9]
  GI50: 0.0346 µM
  TGI: 0.146 µM
[10]
  GI50: 0.033 µM
  TGI: 0.133 µM
[11]
  GI50: 0.0503 µM
  TGI: 0.116 µM
[12]
  GI50: 0.0459 µM
  TGI: 0.159 µM
[13]
  GI50: 0.0241 µM
  TGI: 0.141 µM
[14]
  GI50: 0.0101 µM
  TGI: 0.0689 µM
[15]
  GI50: 0.0333 µM
  TGI: 0.098 µM
[16]
  GI50: 0.0266 µM
  TGI: 0.0729 µM
[17]
  GI50: 0.0377 µM
  TGI: 0.172 µM
[18]
  GI50: 0.0221 µM
  TGI: 0.132 µM
[19]
  GI50: 0.0298 µM
  TGI: 0.116 µM
[20]
  GI50: 0.113 µM
  TGI: 0.263 µM
[21]
  GI50: 0.0598 µM
  TGI: 0.176 µM
[22]
  GI50: 0.0825 µM
  TGI: 0.22 µM
[23]
  GI50: < 0.01 µM
  TGI: 0.014 µM
[24]
  GI50: < 0.0129 µM
  TGI: 0.0683 µM
[25]
  GI50: 0.0228 µM
  TGI: 0.13 µM
[26]
  GI50: < 0.0108 µM
  TGI: 0.22 µM
[27]
  GI50: 0.0635 µM
  TGI: 0.225 µM
[28]
  GI50: 0.035 µM
  TGI: 0.127 µM
[29]
  GI50: 0.129 µM
  TGI: 0.261 µM
[30]
  GI50: < 0.01 µM
  TGI: 0.0406 µM
[31]
  TGI: 0.0275 µM
[32]
  GI50: 0.0353 µM
  TGI: 0.152 µM
[33]
  GI50: < 0.01 µM
  TGI: 0.0284 µM
[34]
  GI50: < 0.013 µM
  TGI: 0.0281 µM
[35]
  GI50: < 0.0261 µM
  TGI: 0.456 µM
[36]
  GI50: 0.0331 µM
  TGI: 0.125 µM
[37]
  GI50: 0.134 µM
  TGI: 0.275 µM
[38]
  GI50: 0.0227 µM
  TGI: 0.14 µM
[39]
  GI50: < 0.01 µM
[40]
  GI50: 0.124 µM
  TGI: 0.253 µM
[41]
  GI50: 0.0437 µM
  TGI: 0.171 µM
[42]
  GI50: 0.142 µM
  TGI: 0.275 µM
[43]
  GI50: 0.0332 µM
  TGI: 0.149 µM
[44]
  GI50: < 0.01 µM
  TGI: 0.063 µM
[45]
  GI50: < 0.01 µM
  TGI: 0.121 µM
[46]
  GI50: 0.0666 µM
  TGI: 0.231 µM
[47]
  GI50: 0.138 µM
  TGI: 0.271 µM
[48]
  GI50: < 0.01 µM
  TGI: 0.0619 µM
[49]
  GI50: 0.0663 µM
[50]
  GI50: 0.0461 µM
  TGI: 0.174 µM
[51]
  GI50: < 0.01 µM
[52]
  GI50: 0.0284 µM
  TGI: 0.224 µM
[53]
  GI50: 0.0206 µM
  TGI: 0.108 µM
[54]
  GI50: < 0.01 µM
  TGI: 0.101 µM
[55]
  GI50: < 0.01 µM
  TGI: 0.03 µM
[56]
  GI50: 0.183 µM
  TGI: 0.467 µM
[57]
  GI50: < 0.01 µM
  TGI: 0.0256 µM
